Values quoted from earlier work in patent US20040087576A1, “Antimnemonic therapy for hypermemory syndromes” (priority 2002, published 2004).

Key:
[1] = test system: reconsolidation of retrieved memories; conditions: in vivo
conditioned fear = conditions: in vivo
rat fear-conditioning = conditions: rats
[2] = patients; doses of 100-500 mg/day
emotion-related memory = conditions: rats; post-training administration
PTSD symptoms = conditions: patients; 10-day course, 40 mg four times daily, versus placebo; assessed 3 months after the trauma

Q: Which “amnesia by blocking the reconsolidation of retrieved memories” value (shortened to “amnesia by blocking the reconsolidation”) [1] does the source give for `NC(CCCP(=O)(O)O)C(=O)O` (stereo not drawn) [AP5] here?
A: induce amnesia by blocking the reconsolidation of retrieved memories

Q: For `N[C@@H]1CONC1=O` [D-cycloserine], which “extinction of conditioned fear” value (conditioned fear) is on record?
A: facilitate the extinction of conditioned fear

Q: For `C[C@]12N[C@H](Cc3ccccc31)c1ccccc12` [MK-801], which “amnesia by blocking the reconsolidation” value [1] is on record?
A: induce amnesia by blocking the reconsolidation of retrieved memories

Q: With `COc1ccc(C[C@H]2NC[C@H](O)[C@H]2OC(C)=O)cc1` [anisomycin] as the compound, how does the “reconsolidation of reactivated memories” value (rat fear-conditioning; cue 1 or 14 days after conditioning, drug immediately after cue, tested 24 hours later) read?
A: blocked reconsolidation of reactivated memories

Q: What about the “fear response to the cue” value (rat fear-conditioning; cue presented a further twenty four hours after treatment) of the same compound?
A: did not display the fear response

Q: With `CC12CC3CC(C)(C1)CC(N)(C3)C2` [memantine] as the compound, how does the tolerability [2] read?
A: well tolerated

Q: Which “consolidation of emotion-related memory” value (emotion-related memory) does the source give for `CC(C)NCC(O)COc1cccc2ccccc12` (stereo not drawn) [propranolol] here?
A: blocked the consolidation of emotion-related memory

Q: And the “amnesia by blocking the reconsolidation” value [1]?
A: induce amnesia by blocking the reconsolidation of retrieved memories

Q: What about the “ratings of PTSD symptoms” value (PTSD symptoms) of the same compound?
A: slightly, but significantly, lower
